The test system of one experiment is S. pneumoniae ATCC6305. The experiment in a line: MIC assays under standard conditions. Type of experiment: cell-based, Streptococcus pneumoniae. Particulars: Supplementary Table 1; cation-adjusted MHB + 5% lysed horse blood, 5% CO2, 20–24 h. Put shortly: (§1)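 Broth microdilution in cation-adjusted MHB, inoculum from OD600 0.5 TSB culture diluted 100-fold, 37 °C with shaking. Streptococci: 5% lysed horse blood, 5% CO2, MIC read visually at 20–24 h; S. simulans read at 16–20 h.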

In another experiment the test system is S. pneumoniae serotype 8. The experiment in a line: MIC assays under standard conditions. Type of experiment: cell-based, Streptococcus pneumoniae. As to conditions: Supplementary Table 1; cation-adjusted MHB + 5% lysed horse blood, 5% CO2, 20–24 h. An outline of the steps:
as §1

A further experiment relates to S. simulans 22. The format is cell-based, Staphylococcus simulans. Particulars: for MIC: cation-depleted MHB + 0.5 mM MgCl2 + 10 µM ZnSO4. How it is done: Cation-depleted MHB was prepared as previously described[18] and supplemented with MgCl2 (0.5 mM) and ZnSO4 (10 µM). Plectasin was serially diluted twofold over a 96-well polypropylene plate. Serial dilutions of Ca^2+ in calcium-depleted medium were subsequently added to the wells containing the plectasin dilution series, followed by addition of bacterial suspensions. MICs were determined by visual inspection after 16–20 h (Staphylococcus). The effect of reduced Ca^2+ levels on S. simulans growth in the absence of plectasin was assessed by monitoring growth at 37 °C by OD600 over 18 h (Supplementary Fig. 4).

Experiment [1] can be described thus: ITC of bivalent cation binding to plectasin in solution. Particulars: mean of duplicate, read-out: Kd, Ca^2+ binding to plectasin (ITC).
The nature of experiment [2]: Tryptophan fluorescence spectroscopy, lipid II binding affinity. On the procedure: Plectasin’s single tryptophan can be used to monitor insertion into the membrane. Measurements were done on a Cary Eclipse (FL0904M005) fluorimeter at 20 °C under constant stirring in a 4 × 10 mm quartz cuvette. For titration experiments, the cuvette was oriented perpendicular to the excitation beam to minimize scattering. LUVs with or without 2 mol% lipid II (prepared as described above at 1–5 mM total lipid concentration) were titrated to 100 nM plectasin in 50 mM HEPES, 150 mM NaCl at pH = 7.2. Fluorescence was excited at 280 nm (5 nm slit) and recorded between 300 and 400 nm (10 nm slit) at 1 nm intervals with 1 s averaging per point. Spectra were corrected for a blank using buffer and for scattering using a titration series in the absence of plectasin. Corrected spectra were fit with log-normal distributions, and the shift of the resulting wavelength of maximum fluorescence (Δλmax) as a function of lipid II concentration on the outside of the vesicles was fit using a quadratic binding equation[54] to obtain the binding affinities.

Experiment [3] deals with S. simulans. Description: Bacterial permeabilization assay (DiSC2(5), SYTOX green). The format is cell-based, Staphylococcus simulans. Particulars: DiSC2(5) and SYTOX green, concentrations higher than the MIC, 20 °C. How it is done:
Overnight cultures (37 °C, TSB) of S. simulans were diluted to OD600 = 0.1 and grown until mid-log phase (OD600 = 0.5–0.8) and collected by centrifugation (2,000 × g, room temperature, 5 min). Cell pellets were washed with buffer (10 mM Tris, 50 mM NaCl and 0.5% w/v glucose at pH = 7.2), resuspended to OD600 = 10 and stored at 4 °C until use. All assays were performed on a Cary Eclipse (FL0904M005) fluorometer. Measurements were done using bacterial suspensions at OD600 = 0.05 in the aforementioned buffer under constant stirring at 20 °C in a 4 × 10 mm quartz cuvette. About 0.2 µM 3,3′-diethylthiadicarbocyanine iodide or 0.25 µM SYTOX green was added and equilibrated for 2 min before addition of an antibiotic. For 3,3′-diethylthiadicarbocyanine iodide, we used excitation and emission wavelengths of 650 nm and 670 nm, respectively, while for SYTOX green, we used 504 nm and 523 nm. About 5 nm slits were used, and fluorescence signal was averaged every 0.3 s.

The test system of experiment [4] is S. simulans. Description: DPH anisotropy membrane fluidity measurements. The format is cell-based, Staphylococcus simulans. As to conditions: intact S. simulans cells, 1 µM plectasin, 37 °C, biological triplicates. How it is done: Preparation of S. simulans stock solutions was done as described above for bacterial permeabilization in PBS. About 1 ml of a cell suspension of OD600 = 0.1 in PBS was treated with 1 µM plectasin and incubated at 37 °C. All assays were performed on a Cary Eclipse (FL0904M005) fluorometer fitted with a manual polarizer accessory (Varian). Measurements were conducted at 37 °C under constant stirring in a 4 × 10 mm quartz cuvette. About 10 µM DPH was added from a 1 mM stock in dimethyl sulfoxide (bringing the final dimethyl sulfoxide concentration to 1 vol%) and incubated for 5 min. Fluorescence was excited with 380 nm light (10 nm slit) and recorded between 430 and 520 nm (10 nm slit) with 0.5 s averaging time and data interval of 1.66 nm per point. Fluorescence anisotropy was calculated using the maximum intensity of each spectrum according to the following equation (where IVV and IVH represent the fluorescence intensity using parallel and orthogonal excitation and emission polarization filters, respectively): r=IVV−IVH/IVV+2IVH

The nature of experiment [5]: Carboxyfluorescein leakage from LUVs. On the procedure:
Vesicle leakage assays were conducted using LUVs filled with carboxyfluorescein. Carboxyfluorescein solutions were made by suspending ~50 mM carboxyfluorescein in H2O and adjusting the pH to ~7.2 using 10 M NaOH. The resulting solution was diluted with H2O to match the osmolarity of the outside buffer, which consisted of 10 mM Tris and 100 mM NaCl, at pH = 7.2. LUVs were prepared as described above. Non-enclosed carboxyfluorescein was removed using a Sephadex G50 column equilibrated in outside buffer. Measurements were conducted on a Cary Eclipse spectrophotometer at 20 °C under constant stirring by monitoring the fluorescence intensity at 515 nm (excitation at 492 nm, 5 nm slit width, 0.1 s averaging time). A total lipid concentration of 25 µM was used for all experiments. Fluorescence traces were normalized using the fluorescence baseline at the start as 0% and fluorescence after treatment with 0.1 vol% Triton-X100 as 100%.

Each structure is given as a SMILES string. Read-outs that look alike come from different tables or passages of the source. Bounds are passed on as bounds.

One may read the MIC as the lowest concentration that inhibits growth of the organism. Regarding `CC[C@H](C)[C@@H]1NC(=O)[C@H](CO)NC(=O)[C@H](CCCCN)NC(=O)[C@@H]2CSSC[C@@H](C(=O)N[C@@H](Cc3ccc(O)cc3)C(=O)O)NC(=O)[C@H](CCCCN)NC(=O)[C@@H]3CSSC[C@H](NC(=O)[C@H](CCC(N)=O)NC(=O)[C@H](CCSC)NC(=O)[C@H](CC(=O)O)NC(=O)[C@H](CC(=O)O)NC(=O)[C@H](CCC(=O)O)NC(=O)[C@H](CC(=O)O)NC(=O)[C@H](Cc4c[nH]c5ccccc45)NC(=O)[C@@H]4CCCN4C(=O)CNC(=O)[C@H](CC(N)=O)NC(=O)[C@@H](NC(=O)CNC(=O)[C@H](Cc4ccccc4)NC(=O)CN)CSSC[C@H](NC(=O)[C@H](Cc4ccc(O)cc4)NC(=O)CNC(=O)CNC(=O)[C@H](CCCCN)NC(=O)[C@H](Cc4ccc(O)cc4)NC(=O)CNC(=O)[C@H](CCCCN)NC1=O)C(=O)N[C@@H](C)C(=O)N[C@@H](CCCCN)C(=O)NCC(=O)NCC(=O)N[C@@H](Cc1ccccc1)C(=O)N[C@@H](C(C)C)C(=O)N3)C(=O)N[C@@H](Cc1c[nH]cn1)C(=O)N[C@@H](CC(N)=O)C(=O)N[C@@H](Cc1c[nH]cn1)C(=O)N2` [Plectasin wt], the “Minimum inhibitory concentration, S. pneumoniae ATCC6305” value in the experiment on S. pneumoniae ATCC6305 was no more than 0.78 µg/mL. Moreover, the “Minimum inhibitory concentration, S. pneumoniae serotype 8” value in the experiment on S. pneumoniae serotype 8 was 1,56 μg/mL. Also, the “improvement of antimicrobial activity with increasing Ca^2+ concentration” value in the experiment on S. simulans 22 (Ca^2+ variable assay) is 4-8 fold. Moreover, the MIC with S. simulans 22 (Calcium 0 mM) was 12.5 µg/mL; with S. simulans 22 (Calcium 0.31 mM), 1.56 µg/mL; in the experiment with S. simulans 22 (Calcium 0.5 mM), 1.56 µg/mL; in the experiment on S. simulans 22 (Calcium 0.63 mM) it was 1.56 µg/mL; in the experiment with S. simulans 22 (Calcium 1.25 mM), 1.56 to 3.13 µg/mL; in the experiment on S. simulans 22 (Calcium 2.5 mM) it was 3.13 µg/mL. In addition, the Kd in experiment [1] was 159 ± 69 nM; in experiment [2] (DOPC liposomes, 1 mM Mg^2+) it was 80 nM; in experiment [2] (DOPC liposomes, without bivalent ions (100 μM EDTA)) it was 155 nM; in experiment [2] (anionic DOPC/DOPG (1:1) liposomes, 1 mM Ca^2+), 1 nM; in experiment [2] (anionic DOPC/DOPG (1:1) liposomes, 1 mM Mg^2+), 4 nM; in experiment [2] (anionic DOPC/DOPG (1:1) liposomes, without bivalent ions (100 μM EDTA)) it was 27 nM. Besides, the Kd in experiment [2] (zwitterionic DOPC liposomes, 2 mol% lipid II, 1 mM Ca^2+, 100 nM plectasin, HEPES pH 7.2, 20 °C) turned out to be 1 nM. Also, the “lipid II binding affinity increase in the presence of Ca^2+” value in experiment [2] (neutral DOPC liposomes, with Ca^2+ vs without bivalent ions) is greater than 100 fold. For the same compound, in the experiment on S. simulans [3], the “leakage in S. simulans membranes (in words)” value was “does not cause leakage”. In addition, the “DPH fluorescence anisotropy (membrane fluidity)” value with S. simulans [4] is recorded as “decrease in the fluorescence anisotropy”. In addition, the “carboxyfluorescein leakage (in words)” value is recorded as “efficiently permeabilized” in experiment [5] (DOPC Lipid II vesicles, in the presence of calcium) and “virtually no leakage” in experiment [5] (phospholipids native to gram-positive bacteria included in the membrane, with calcium).

The values are drawn from paper PMC11222147, “Host defence peptide plectasin targets bacterial cell wall precursor lipid II by a calcium-sensitive supramolecular mechanism” (Nature Microbiology, 2024).
